# Laboratory results reported in patent publication US20250000852A1, “NITROXOLINE FOR USE IN THE TREATMENT OR PREVENTION OF A PLEXIFORM NEUROFIBROMA” (HEALX LTD, priority 2021, published 2025).
# What was measured:
# [1] = test system: WT (ipn02.3λ) immortalized human-derived Schwann cells; test: CellTiter-Glo cell proliferation assay, WT Schwann cells; type: cell-based; conditions: 48 hours incubation
# Source text: (§1) In this study the efficacy of nitroxoline was investigated and its ability to reduce cellular proliferation, increase apoptosis, and overall cell viability utilizing immortalized wild-type (WT) and NF1 deficient (Nf1^−/−) Schwann cells (SCs). Nf1^−/− SCs have increased survival and proliferation in vitro, consistent with the in vivo phenotypes (Kim H A et al., Mol Cell Biol. 1997; 17 (2): 862-72). The present studies utilize WT (ipn02.3λ) and NF1^−/− (ipNF95.6) immortalized human-derived SC lines. The selectivity of nitroxoline was compared between NF1^−/− and WT cells.
# (§2) Cells were treated with serially diluted nitroxoline starting from […] and incubated for 48 hours. After the incubation period, proliferation, viability, and apoptosis assays were performed as described below: • Cell proliferation was assessed using the CellTiter-Glo Assay (Promega) which measures ATP consumption. […] After 10 minutes, the plates were read using a 96-well microplate luminometer. • Cellular apoptosis was assessed using the Caspase-Glo 3/7 kit (Promega). […] After 10 minutes, plates were read using a 96 well luminometer and caspase 3/7 activity was measured.
# [2] = test system: NF1−/− (ipNF95.6) immortalized human-derived Schwann cells; test: CellTiter-Glo cell proliferation assay, NF1 deficient Schwann cells; type: cell-based; conditions: 48 hours incubation
# Source text: as §1, §2
# [3] = test system: WT (ipn02.3λ) immortalized human-derived Schwann cells; test: Caspase-Glo 3/7 apoptosis assay, WT Schwann cells; type: cell-based; conditions: 48 hours incubation, caspase 3/7 activity
# Source text: as §1, §2
# [4] = test system: NF1−/− (ipNF95.6) immortalized human-derived Schwann cells; test: Caspase-Glo 3/7 apoptosis assay, NF1 deficient Schwann cells; type: cell-based
# Source text: as §1, §2
# [5] = test system: Postn-Cre+ Nf1fl/fl mouse model of plexiform neurofibroma; test: In vivo drug testing in Nf1-KO mice (plexiform neurofibroma model); conditions: oral gavage, 12 weeks
# Source text: The aim of this study was to evaluate the effect of nitroxoline in a mouse model of neurofibromatosis type 1, more specifically a model that develops plexiform neurofibromas. This study is the same used by AstraZeneca for the approval of selumetinib for pNF.
# This study uses the Postn-Cre+Nf1^fl/fl mouse model of plexiform neurofibroma. The neurofibromas that arise in these mice faithfully recapitulate human disease (Burks et al. 2019). At 4 months of age when mice (male and female) had established plexiform neurofibromas they were randomised into three treatment groups and administered nitroxoline at 120 mg/kg QD, 120 mg/kg BD or vehicle (10% DMSO in 90% corn oil) via oral gavage. Mice were treated for 12 weeks then sacrificed. Mice were perfused and fixed in 10% neutral buffered formalin.
# The whole bodies were decalcified in 5% formic acid, the spinal proximal nerve tree was dissected, and nerve width (including the tumour formed along it) measured via calliper (shown in FIG. 3) across four nerves per mouse. Nerve volume was subsequently calculated using a spheroid calculation: 0.52×(width) 2 w length.
# To quantify tumour number, the nerves were processed to paraffin blocks, sectioned, and stained for collagen using Masson's trichrome stain. Tumour number was scored from these slides by a clinician.
# Graphs and statistical analysis of data were produced using GraphPad Prism (Ver 9).
compound,measurement,setting,value
"O=[N+]([O-])c1ccc(O)c2ncccc12 [Nitroxoline, 5-nitroquinolin-8-ol]",concentration at which antiproliferative effect was observed,[1],greater than 1 μM
same,concentration at which antiproliferative effect was observed,[2],greater than 1 μM
same,concentration at which induction of apoptosis was evident,[3],greater than 3 UM
same,concentration at which induction of apoptosis was evident,"[4]; Nf1−/− Schwann cells, 48 hours incubation, caspase 3/7 activity",greater than 3 UM
same,magnitude of the increase in apoptosis in Nf1−/− SC compared with WT SC,"[4]; at concentrations greater than 10 μM, 48 hours",significantly greater
same,proximal nerve volume compared to vehicle treated control mice,[5]; 120 mg/kg BD,lower proximal nerve volumes
same,proximal nerve volume compared to vehicle treated control mice,[5]; 120 mg/kg QD,lower proximal nerve volumes
same,tumour number along the nerves compared to vehicle controls,[5]; nitroxoline treated mice (120 mg/kg QD or BD),a reduction in tumour number
